# Values joined by “and” are separate entries in the source; they are usually repeats but may differ in a detail not shown here. Equal entries are not always repeated.
# Key:
# mice in a formalin test = test: Antalgic effect (II) on mice in a formalin test (comparison with morphine and indomethacin); format: in vivo
# Experimental: Antalgic Effect (II) on Mice in a Formalin Test
# The typical example of the compound of the present invention (the compound in Example 1) was compared with morphine and indomethacin in the same manner as in Pharmacological Experimental Example 5 above.
# 20.4 mg of the compound of the present invention was weighed, and 10.2 ml of 5.28% mannitol was added thereto to prepare 2 mg/ml (20 mg/kg) solution. Then, 3.8 ml of 5.28% mannitol was added to 3.8 ml of the 2 mg/ml solution to prepare 1 mg/ml (10 mg/kg) solution. Finally, 2.5 ml of 5.28% mannitol was added to 2.5 ml of the 1 mg/ml solution to prepare 0.5 mg/ml (5 mg/kg) solution. The test compound was weighed and prepared on the day when the experiment was conducted.
# b-1) Morphine 17.0 mg of morphine purchased as a reagent was weighed, and 5.67 ml physiological saline was added thereto to form 3 mg/ml (30 mg/kg) solution. Then, 2.6 ml physiological saline was added to 1.3 ml of the 3 mg/ml solution to prepare 1 mg/ml (10 mg/kg) solution. Finally, 2.1 ml physiological saline was added to 0.9 ml of the 1 mg/ml solution to prepare 0.3 mg/ml (3 mg/kg) solution. The test compound was weighed and prepared on the day when the experiment was conducted.
# 12.9 mg of indomethacin purchased as a reagent was weighed, and 12.9 ml of 0.5% methyl cellulose (MC) was added thereto to form 1 mg/ml (10 mg/kg) suspension. Then, 2.24 ml of 0.5% MC was added to 0.96 ml of the 1 mg/ml suspension to prepare 0.3 mg/ml (3 mg/kg) suspension. Finally, 1.6 ml of 0.5% MC was added to 0.8 ml of the 0.3 mg/ml suspension to prepare 0.1 mg/ml (1 mg/kg) suspension. The test compound was weighed and prepared on the day when the experiment was conducted.
# The treatment group by the compound of the present invention consisted of 4 groups in total, that is, a control group, a 5 mg/kg compound administration group, a 10 mg/kg compound administration group, and a 20 mg/kg compound administration group, and each group consisted of 5 animals.
# The control group was given 0.1 ml of 5.28% mannitol per 10 g of the body weight via the tail vein. The compound of the present invention was administered via the tail vein at each concentration (0.5 mg/ml, 1 mg/ml, and 2 mg/ml) in an volume of 0.1 ml per 10 g of the body weight into the 5 mg/kg group, 10 mg/kg group and 20 mg/kg group, respectively.
# The treatment group by morphine consisted of 4 groups in total, that is, a control group, a 3 mg/kg morphine administration group, a 10 mg/kg morphine administration group, and a 30 mg/kg morphine administration group, and each group consisted of 5 animals.
# The control group was orally given 0.1 ml of physiological saline per 10 g of the body weight. Morphine was orally administered at each concentration (0.3 mg/ml, 1 mg/ml, and 3 mg/ml) in a volume of 0.1 ml per 10 g of the body weight into the 3 mg/kg group, 10 mg/kg group and 30 mg/kg group, respectively.
# The treatment group by indomethacin consisted of 4 groups in total, that is, a control group, a 1 mg/kg indomethacin administration group, a 3 mg/kg indomethacin administration group, and a 10 mg/kg indomethacin administration group, and each group consisted of 5 animals.
# The control group was orally given 0.1 ml of 0.5% MC per 10 g of the body weight. Indomethacin was orally administered at each concentration (0.1 mg/ml, […], and 1 mg/ml) in a volume of 0.1 ml per 10 g of the body weight into the 1 mg/kg group, 3 mg/kg group and 10 mg/kg group, respectively.
# 5.28% mannitol was administered via the tail vein into each group given the compound of the present invention or into the control group, and the animals were placed in a transparent plastic observation cage. 5 minutes later, 20 μl of 3% formalin was subcutaneously administered into the bottom of the left hind leg of each mouse. The duration of the behavior of mouse's licking the left hind leg after administration of formalin was measured for 5 minutes and used as an indication of pain. The duration was expressed in second. […]
# [1] = test system: rat model with local cerebral ischemia; settings: literature reports (13, 14, 15); cited from earlier work
# formalin test = settings: administered into spinal cord, literature reports (1, 2); cited from earlier work
# [2] = test system: rat model with occlusion in the middle cerebral artery; test: Effect (II) of reducing infarct volume in a rat model with occlusion in the middle cerebral artery (permanent occlusion); format: in vivo
# Experimental: Effect (II) of Reducing Infarct volume in a Rat Model with Occlusion in the Middle Cerebral Artery
# The typical example of the compound of the present invention (the compound in Example 1) was compared with compounds disclosed in JP 8-508037-A (WO 94/25469, U.S. Pat. No. 5,750,525), which have affinity for AMPA receptors and is effective against cellular necrosis after ischemia in anoxia and hypocalcemia.
# The compound of the present invention was dissolved in physiological saline to be adjusted to a dosage of 10 or 20 mg/kg/h just before use.
# The control compound was dissolved in physiological saline to be adjusted to a dosage of 3 mg/kg/h just before use.
# Occlusion in the middle cerebral artery was conducted according to the method described above. However, the middle cerebral artery was permanently occluded without removing the nylon embolus.
# Two hours after the middle cerebral artery was occluded, a syringe containing the medium or the sample (10 or 20 mg/kg/h) was attached to a catheter for intravenous administration, and half (0.31 ml) of the dosage to be infused for 1 hour was intravenously administered for 1 minute. Thereafter, the medium or the sample was administered continuously for 6 hours at a rate of 0.616 ml/h by the use of a syringe pump for infusion. During administration and for 2 hours after administration was finished, the temperature of the rectum was maintained in the range of 37.0 to 38.5° C. in a system for controlling body temperature. After the body temperature control was finished, the animal was returned to a cage and maintained for 1 day in a breeding room.
# Two hours after the middle cerebral artery was occluded, a syringe containing the medium or the sample (3 mg/kg/h) was attached to a catheter for intravenous administration, and the medium or the sample was administered continuously for 6 hours at a rate of 0.616 ml/h by means of the syringe pump for infusion. During administration and for 2 hours after administration was finished, the temperature of the rectum was maintained in the range of 37.0 to 38.5° C. in the system for controlling body temperature. After the body temperature control was finished, the animal was returned to a cage and maintained for 1 day in a breeding room.
# The middle cerebral artery was permanently occluded by the nylon embolus, and the infarct volume was measured 24 hours after the occlusion was conducted.
molecule,measurement,setting,value
COc1ccc2c(c1)c(CC(=O)O)c(C)n2C(=O)c1ccc(Cl)cc1 [indomethacin],"average left hind leg-licking time, Mean","mice in a formalin test; 1 mg/kg p.o., formalin 90 minutes later",87.8 s
same,"average left hind leg-licking time, Mean","mice in a formalin test; 3 mg/kg p.o., formalin 90 minutes later",75.8 s
same,"average left hind leg-licking time, Mean","mice in a formalin test; 10 mg/kg p.o., formalin 90 minutes later",84.0 s
same,antalgic effect in the formalin test,mice in a formalin test; overall conclusion of the comparison,does not have any effect
ω-agatoxin IVA,protective action on nerve cells,[1],has a protective action on nerve cells
CN1CC[C@]23c4c5ccc(O)c4O[C@H]2[C@@H](O)C=C[C@H]3[C@H]1C5 [morphine],"average left hind leg-licking time, Mean","mice in a formalin test; 3 mg/kg p.o., formalin 30 minutes later",68.2 s
same,"average left hind leg-licking time, Mean","mice in a formalin test; 10 mg/kg p.o., formalin 30 minutes later",58.0 s
same,"average left hind leg-licking time, Mean","mice in a formalin test; 30 mg/kg p.o., formalin 30 minutes later",29.6 s
CSCC[C@@H]1NC(=O)[C@H](CC(C)C)NC(=O)[C@H](CCCNC(=N)N)NC(=O)[C@H](CO)NC(=O)[C@@H]2CSSC[C@@H]3NC(=O)[C@H](CO)NC(=O)CNC(=O)[C@H]([C@@H](C)O)NC(=O)[C@H](CSSC[C@H](N)C(=O)N[C@@H](CCCCN)C(=O)NCC(=O)N[C@@H](CCCCN)C(=O)NCC(=O)N[C@@H](C)C(=O)N[C@@H](CCCCN)C(=O)N2)NC(=O)[C@H](CSSC[C@@H](C(N)=O)NC(=O)[C@H](CCCCN)NC(=O)CNC(=O)[C@H](CO)NC(=O)[C@H](CCCNC(=N)N)NC3=O)NC(=O)[C@H](CC(=O)O)NC(=O)[C@H](Cc2ccc(O)cc2)NC1=O [SNX-111],protective action on nerve cells,[1],serves for protection against the liberation of glutamic acid from the cerebral cortex and against the subsequent disturbance of nerve cells
same,antalgic action,formalin test,has an antalgic action
"O=c1[nH]c2cc(C(F)(F)F)c(N3CCOCC3)cc2n(CP(=O)(O)O)c1=O [control compound, {[3,4-Dihydro-7-(4-morpholinyl)-2,3-dioxo-6-(trifluoromethyl)-1-(2H)-quinoxalinyl]methyl}phosphonic acid, reference compound]",infarct volume compared with the control group,[2]; 3 mg/kg/h i.v.,no difference from the control group
same,"Infarct volume in the cerebral cortex, Mean","[2]; 3 mg/kg/h i.v. (table: 3 mg/kg), from two hours after occlusion, 6 hours, 24 hours after occlusion",284.9±10.9 mm^3 and 284.9 mm^3
